This note sets out measurements from patent US11795177B2, “Substituted quinoline analogs as aldehyde dehydrogenase 1A1 (ALDH1A1) inhibitors” (THE UNITED STATES OF AMERICA, AS REPRESENTED BY THE …, priority 2017, dated 2023).

One assay deals with T1, ALDH1A1 enzyme (Homo sapiens, UniProt P00352).
T1 sequence (P00352 1-501): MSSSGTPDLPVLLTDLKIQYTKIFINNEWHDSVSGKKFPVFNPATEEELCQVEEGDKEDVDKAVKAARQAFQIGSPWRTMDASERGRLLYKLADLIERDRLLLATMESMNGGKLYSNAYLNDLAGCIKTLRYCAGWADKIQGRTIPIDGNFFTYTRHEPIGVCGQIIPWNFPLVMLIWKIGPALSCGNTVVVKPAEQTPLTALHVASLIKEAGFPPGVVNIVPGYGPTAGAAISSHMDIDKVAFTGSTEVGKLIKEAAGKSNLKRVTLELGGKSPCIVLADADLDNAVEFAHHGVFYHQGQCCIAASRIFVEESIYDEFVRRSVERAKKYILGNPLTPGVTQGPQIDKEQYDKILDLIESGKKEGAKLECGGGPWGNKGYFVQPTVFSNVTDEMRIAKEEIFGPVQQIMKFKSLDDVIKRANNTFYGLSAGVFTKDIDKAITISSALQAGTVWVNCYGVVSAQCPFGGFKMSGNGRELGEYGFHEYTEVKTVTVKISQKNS
Kind of assay: ALDH1A1 enzymatic assay (in vitro). The note with it: ALDH1A1 enzyme 20 nM, NAD+ 1 mM, propionaldehyde 80 μM; read-out: ALDH1A1 IC50. The class given is biochemical. The gist of the method:
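ALDH1A1 (20 nM final) in 100 mM HEPES pH 7.5, 0.01% Tween 20 was preincubated 15 min at RT with compound (968 pM–57.2 μM final), then started with 1 mM NAD+ and 80 μM propionaldehyde. NADH fluorescence (ex 340/em 450 nm) followed kinetically for 10 min; change normalized to no-inhibitor and no-enzyme controls for percent inhibition and curve fitting.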

Another assay deals with MIA PaCa-2 cells. Kind of assay: MIA PaCa2 cell-based assay (1,536-well high-content imaging ALDEFLUOR assay). Details: species or system human. The note with it: Homo sapiens, 0.5 h, ALDEFLUOR BAAA substrate 500 nM, 30 minutes. The gist of the method:
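High-content ALDEFLUOR imaging readout: BAA-retaining cells in FITC channel scored against Hoechst-counted nuclei. Before imaging, MIA PaCa-2 cells seeded at 1,000 per well received final 500 nM BAAA and 0.5 nM Hoechst with compounds in 16-point series (1.4 nM to 47.8 μM), 30 min, 37° C.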

For `CCNC(=O)N1CCN(C(=O)c2cnc3ccc(F)cc3c2N2CCC(C)(C#N)CC2)CC1` [Example 89, 4-(4-(4-cyano-4-methylpiperidin-1-yl)-6-fluoroquinoline-3-carbonyl)-N-ethylpiperazine-1-carboxamide], the IC50 on ALDH1A1 enzyme was below 0.5 µM; in the assay with MIA PaCa-2 cells, above 10 µM.
The matching figures for `CC(C)NC(=O)N1CCN(C(=O)c2cnc3ccc(F)cc3c2N2CCC(C)(C#N)CC2)CC1` [Example 90, 4-(4-(4-cyano-4-methylpiperidin-1-yl)-6-fluoroquinoline-3-carbonyl)-N-isopropylpiperazine-1-carboxamide]: 1 to 10 µM and above 10 µM.
The matching figures for `CC1(C#N)CCN(c2c(C(=O)N3CCN(C(=O)C4CC4)CC3)cnc3ccccc23)CC1` [Example 93, 1-(3-(4-(cyclopropanecarbonyl)piperazine-1-carbonyl)quinolin-4-yl)-4-methylpiperidine-4-carbonitrile]: below 0.5 µM and 1 to 10 µM.
`CCC(=O)N1CCN(C(=O)c2cnc3ccccc3c2N2CCC(C)(C#N)CC2)CC1` [Example 94, 4-methyl-1-(3-(4-propionylpiperazine-1-carbonyl)quinolin-4-yl)piperidine-4-carbonitrile]: the IC50 at ALDH1A1 enzyme was 0.5 to 1 µM; with MIA PaCa-2 cells, above 10 µM.
In the case of `CC(C)C(=O)N1CCN(C(=O)c2cnc3ccccc3c2N2CCC(C)(C#N)CC2)CC1` [Example 95, 1-(3-(4-isobutyrylpiperazine-1-carbonyl)quinolin-4-yl)-4-methylpiperidine-4-carbonitrile], the IC50 on ALDH1A1 enzyme is below 0.5 µM; in the assay on MIA PaCa-2 cells it was above 10 µM.
The matching figures for `CC(=O)N1CCN(C(=O)c2cnc3ccccc3c2N2CCC(C)(C#N)CC2)CC1` [Example 96, 1-(3-(4-acetylpiperazine-1-carbonyl)quinolin-4-yl)-4-methylpiperidine-4-carbonitrile]: 1 to 10 µM and above 10 µM.
For the molecule `CC1(C#N)CCN(c2c(C(=O)N3CCN(S(C)(=O)=O)CC3)cnc3ccccc23)CC1` [Example 97, 4-methyl-1-(3-(4-(methylsulfonyl)piperazine-1-carbonyl)quinolin-4-yl)piperidine-4-carbonitrile], the IC50 is below 0.5 µM on ALDH1A1 enzyme and above 10 µM in the assay on MIA PaCa-2 cells.
The matching figures for `CC1(C#N)CCN(c2c(C(=O)N3CCN(S(=O)(=O)C4CC4)CC3)cnc3ccccc23)CC1` [Example 98, 1-(3-(4-(cyclopropylsulfonyl)piperazine-1-carbonyl)quinolin-4-yl)-4-methylpiperidine-4-carbonitrile]: 1 to 10 µM and above 10 µM.
The matching figures for `CCNC(=O)N1CCN(C(=O)c2cnc3ccccc3c2N2CCC(C)(C#N)CC2)CC1` [Example 99, 4-(4-(4-cyano-4-methylpiperidin-1-yl)quinoline-3-carbonyl)-N-ethylpiperazine-1-carboxamide]: 1 to 10 µM and above 10 µM.
The matching figures for `CCOC(=O)N1CCN(C(=O)c2cnc3ccccc3c2N2CCC(C)(C#N)CC2)CC1` [Example 100, Ethyl 4-(4-(4-cyano-4-methylpiperidin-1-yl)quinoline-3-carbonyl)piperazine-1-carboxylate]: 0.5 to 1 µM and above 10 µM.
As for `COc1ccc2c(N3CCC(C)(C#N)CC3)c(C(=O)N3CCN(C(=O)C4CC4)CC3)cnc2c1` [Example 101, 1-(3-(4-(cyclopropanecarbonyl)piperazine-1-carbonyl)-7-methoxyquinolin-4-yl)-4-methylpiperidine-4-carbonitrile], the IC50 was below 0.5 µM at ALDH1A1 enzyme and 1 to 10 µM with MIA PaCa-2 cells.
As to `CCC(=O)N1CCN(C(=O)c2cnc3cc(OC)ccc3c2N2CCC(C)(C#N)CC2)CC1` [Example 102, 1-(7-methoxy-3-(4-propionylpiperazine-1-carbonyl)quinolin-4-yl)-4-methylpiperidine-4-carbonitrile], the IC50 at ALDH1A1 enzyme was below 0.5 µM; in the assay with MIA PaCa-2 cells, 1 to 10 µM.
